Laboratory results published in ChEMBL document CHEMBL5120922, “Discovery, Optimization, and Evaluation of Potent and Selective PI3Kδ-γ Dual Inhibitors for the Treatment of B-cell Malignancies” (J Med Chem, 2022).

Key:
[1] = test system: SUD4; test: Antiproliferative activity against human SU-DHL-4 cells assessed as cell growth inhibition measured after 72 hrs by MTT assay; format: functional, cell-based; conditions: SU-DHL-4, 72 h
[2] = target: Phosphatidylinositol 4,5-bisphosphate 3-kinase catalytic subunit beta isoform (Homo sapiens, UniProt P42338); test: Inhibition of N-terminal His6-tagged recombinant full length human PI3Kbeta expressed in baculovirus infected Sf21 insect cells incubated for 30 mins by HTRF assay
Chain of Phosphatidylinositol 4,5-bisphosphate 3-kinase catalytic subunit beta isoform (P42338 whole entry, canonical isoform): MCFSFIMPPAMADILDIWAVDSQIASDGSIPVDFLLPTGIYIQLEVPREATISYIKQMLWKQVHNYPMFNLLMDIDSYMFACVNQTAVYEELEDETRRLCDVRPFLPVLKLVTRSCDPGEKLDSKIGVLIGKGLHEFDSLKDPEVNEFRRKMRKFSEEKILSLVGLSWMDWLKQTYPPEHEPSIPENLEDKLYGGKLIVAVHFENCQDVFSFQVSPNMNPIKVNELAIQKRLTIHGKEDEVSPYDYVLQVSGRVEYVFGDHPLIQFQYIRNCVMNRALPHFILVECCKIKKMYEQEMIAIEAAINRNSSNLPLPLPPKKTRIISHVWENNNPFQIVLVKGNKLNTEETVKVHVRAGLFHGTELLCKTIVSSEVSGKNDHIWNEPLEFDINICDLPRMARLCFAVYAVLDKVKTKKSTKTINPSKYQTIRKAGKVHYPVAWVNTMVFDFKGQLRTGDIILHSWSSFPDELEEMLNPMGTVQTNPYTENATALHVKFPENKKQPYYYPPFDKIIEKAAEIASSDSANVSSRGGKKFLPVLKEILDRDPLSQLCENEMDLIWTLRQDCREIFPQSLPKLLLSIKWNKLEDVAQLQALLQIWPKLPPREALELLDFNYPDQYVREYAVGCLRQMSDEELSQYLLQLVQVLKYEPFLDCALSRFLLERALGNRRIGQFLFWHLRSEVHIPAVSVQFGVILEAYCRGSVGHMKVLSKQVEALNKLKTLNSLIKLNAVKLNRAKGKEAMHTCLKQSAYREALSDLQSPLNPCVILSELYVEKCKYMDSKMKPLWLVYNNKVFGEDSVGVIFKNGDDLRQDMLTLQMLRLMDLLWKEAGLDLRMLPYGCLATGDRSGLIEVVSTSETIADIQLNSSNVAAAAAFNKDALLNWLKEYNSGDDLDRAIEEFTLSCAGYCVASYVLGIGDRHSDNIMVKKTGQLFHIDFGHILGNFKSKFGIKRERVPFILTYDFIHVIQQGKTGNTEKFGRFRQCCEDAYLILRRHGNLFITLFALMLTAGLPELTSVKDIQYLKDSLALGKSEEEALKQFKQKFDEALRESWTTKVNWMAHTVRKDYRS

[3] = test system: DOHH-2; test: Antiproliferative activity against human DOHH-2 cells assessed as cell growth inhibition measured after 72 hrs by MTT assay; format: functional, cell-based; conditions: DOHH-2, 72 h
[4] = target: Phosphatidylinositol 4,5-bisphosphate 3-kinase catalytic subunit gamma isoform (Homo sapiens, UniProt P48736); test: Inhibition of N-terminal His6-tagged recombinant full length human PI3Kgamma expressed in baculovirus infected Sf21 insect cells incubated for 30 mins by HTRF assay
Chain of Phosphatidylinositol 4,5-bisphosphate 3-kinase catalytic subunit gamma isoform (P48736 whole entry, canonical isoform): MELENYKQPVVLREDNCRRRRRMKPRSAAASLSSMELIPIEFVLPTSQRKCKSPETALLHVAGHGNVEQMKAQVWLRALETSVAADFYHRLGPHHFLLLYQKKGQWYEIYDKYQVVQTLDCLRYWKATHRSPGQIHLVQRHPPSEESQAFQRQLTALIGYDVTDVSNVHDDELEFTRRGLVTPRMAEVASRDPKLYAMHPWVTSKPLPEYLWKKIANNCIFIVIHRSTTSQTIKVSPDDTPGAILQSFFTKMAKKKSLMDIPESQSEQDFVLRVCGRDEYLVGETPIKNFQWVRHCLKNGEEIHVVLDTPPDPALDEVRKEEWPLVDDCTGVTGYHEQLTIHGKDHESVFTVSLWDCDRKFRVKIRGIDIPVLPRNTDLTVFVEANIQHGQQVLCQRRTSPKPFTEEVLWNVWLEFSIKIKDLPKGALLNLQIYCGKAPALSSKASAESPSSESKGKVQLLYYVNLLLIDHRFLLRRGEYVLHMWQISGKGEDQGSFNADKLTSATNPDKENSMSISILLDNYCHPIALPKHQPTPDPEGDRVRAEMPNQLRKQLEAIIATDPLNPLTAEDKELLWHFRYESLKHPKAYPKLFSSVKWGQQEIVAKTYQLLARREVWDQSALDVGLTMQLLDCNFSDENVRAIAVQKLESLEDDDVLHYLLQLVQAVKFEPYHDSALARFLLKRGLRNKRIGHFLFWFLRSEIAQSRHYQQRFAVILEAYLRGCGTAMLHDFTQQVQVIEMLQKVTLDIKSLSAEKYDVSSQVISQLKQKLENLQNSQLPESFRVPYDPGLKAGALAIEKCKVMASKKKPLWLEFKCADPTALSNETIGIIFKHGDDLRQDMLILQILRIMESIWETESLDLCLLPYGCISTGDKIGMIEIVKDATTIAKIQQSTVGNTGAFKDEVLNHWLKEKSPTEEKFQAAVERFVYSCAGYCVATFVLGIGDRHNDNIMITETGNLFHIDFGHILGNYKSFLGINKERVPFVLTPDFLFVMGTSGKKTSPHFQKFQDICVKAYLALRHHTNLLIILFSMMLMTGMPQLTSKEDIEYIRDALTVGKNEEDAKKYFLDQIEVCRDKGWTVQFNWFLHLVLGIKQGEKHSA

[5] = target: Phosphatidylinositol 4,5-bisphosphate 3-kinase catalytic subunit alpha isoform (Homo sapiens, UniProt P42336); test: Inhibition of N-terminal His6-tagged recombinant full length human PI3Kalpha expressed in baculovirus infected Sf21 insect cells incubated for 30 mins by HTRF assay
Chain of Phosphatidylinositol 4,5-bisphosphate 3-kinase catalytic subunit alpha isoform (P42336 whole entry, canonical isoform): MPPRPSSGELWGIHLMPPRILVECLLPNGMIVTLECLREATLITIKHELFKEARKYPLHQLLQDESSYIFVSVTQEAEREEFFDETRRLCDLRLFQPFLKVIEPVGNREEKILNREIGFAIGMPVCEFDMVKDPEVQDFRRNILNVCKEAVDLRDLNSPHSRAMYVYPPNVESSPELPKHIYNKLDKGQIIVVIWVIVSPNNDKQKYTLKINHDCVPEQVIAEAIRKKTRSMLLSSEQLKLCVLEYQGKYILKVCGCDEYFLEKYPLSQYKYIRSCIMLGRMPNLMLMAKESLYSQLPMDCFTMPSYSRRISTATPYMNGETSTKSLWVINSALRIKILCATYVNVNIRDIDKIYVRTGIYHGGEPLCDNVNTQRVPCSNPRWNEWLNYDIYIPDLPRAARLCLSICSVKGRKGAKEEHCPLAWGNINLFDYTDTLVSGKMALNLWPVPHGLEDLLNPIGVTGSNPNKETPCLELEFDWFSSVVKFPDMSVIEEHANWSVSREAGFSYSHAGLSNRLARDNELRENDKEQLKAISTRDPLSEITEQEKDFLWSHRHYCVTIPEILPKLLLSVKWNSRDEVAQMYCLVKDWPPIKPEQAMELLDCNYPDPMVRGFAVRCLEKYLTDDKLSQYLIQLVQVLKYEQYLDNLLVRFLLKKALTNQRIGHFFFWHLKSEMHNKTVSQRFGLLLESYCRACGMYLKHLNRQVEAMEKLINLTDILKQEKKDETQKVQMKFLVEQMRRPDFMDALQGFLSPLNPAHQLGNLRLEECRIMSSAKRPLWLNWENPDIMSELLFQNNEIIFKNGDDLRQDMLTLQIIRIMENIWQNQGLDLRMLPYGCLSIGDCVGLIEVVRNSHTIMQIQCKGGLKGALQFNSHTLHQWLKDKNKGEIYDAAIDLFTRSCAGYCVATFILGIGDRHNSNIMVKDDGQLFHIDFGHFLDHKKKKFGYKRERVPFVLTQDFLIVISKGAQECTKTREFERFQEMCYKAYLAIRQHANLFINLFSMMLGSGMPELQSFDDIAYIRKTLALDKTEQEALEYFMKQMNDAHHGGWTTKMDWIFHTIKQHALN

[6] = test system: SU-DHL-6; test: Antiproliferative activity against human SU-DHL-6 cells assessed as cell growth inhibition measured after 72 hrs by MTT assay; format: functional, cell-based; conditions: SU-DHL-6, 72 h
[7] = target: T1, Phosphatidylinositol 4,5-bisphosphate 3-kinase catalytic subunit delta isoform (Homo sapiens, UniProt O00329); test: Inhibition of N-terminal His6-tagged recombinant full length human PI3Kdelta expressed in baculovirus infected Sf21 insect cells incubated for 30 mins by HTRF assay
T1 sequence (O00329 whole entry): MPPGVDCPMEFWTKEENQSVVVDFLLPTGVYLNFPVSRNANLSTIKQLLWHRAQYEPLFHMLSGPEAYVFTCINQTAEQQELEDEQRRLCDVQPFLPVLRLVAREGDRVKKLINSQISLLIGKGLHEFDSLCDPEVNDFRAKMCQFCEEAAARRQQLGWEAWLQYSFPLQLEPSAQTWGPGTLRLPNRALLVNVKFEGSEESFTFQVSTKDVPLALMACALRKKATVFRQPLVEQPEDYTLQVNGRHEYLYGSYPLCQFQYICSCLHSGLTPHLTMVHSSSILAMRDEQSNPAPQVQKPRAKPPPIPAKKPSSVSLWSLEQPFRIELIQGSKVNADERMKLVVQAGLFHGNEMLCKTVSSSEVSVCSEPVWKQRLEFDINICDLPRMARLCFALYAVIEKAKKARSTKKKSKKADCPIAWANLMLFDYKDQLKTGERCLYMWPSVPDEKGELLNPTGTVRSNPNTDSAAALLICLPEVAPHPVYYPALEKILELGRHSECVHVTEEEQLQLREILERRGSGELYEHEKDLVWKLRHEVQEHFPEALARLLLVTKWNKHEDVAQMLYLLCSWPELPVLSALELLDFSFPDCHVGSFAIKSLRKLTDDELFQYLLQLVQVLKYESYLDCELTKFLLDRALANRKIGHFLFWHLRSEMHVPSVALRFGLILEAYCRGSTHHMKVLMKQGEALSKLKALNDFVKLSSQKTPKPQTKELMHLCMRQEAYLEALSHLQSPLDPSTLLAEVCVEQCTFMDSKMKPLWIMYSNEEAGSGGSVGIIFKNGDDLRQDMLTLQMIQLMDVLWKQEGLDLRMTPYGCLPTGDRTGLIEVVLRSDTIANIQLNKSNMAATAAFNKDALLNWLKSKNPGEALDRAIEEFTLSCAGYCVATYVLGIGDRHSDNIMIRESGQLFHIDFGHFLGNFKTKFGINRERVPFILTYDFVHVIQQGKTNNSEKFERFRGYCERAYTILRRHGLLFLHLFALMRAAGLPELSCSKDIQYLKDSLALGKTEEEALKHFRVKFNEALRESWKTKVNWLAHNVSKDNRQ

[8] = test system: SU-DHL-6; test: Induction of apoptosis in human SU-DHL-6 cells assessed as late apoptotic cells at 1.5 uM incubated for 48 hrs by annexin V-FITC and PI staining based flow cytometry analysis (reference value: 3.88 %); format: functional
[9] = test system: DOHH-2; test: Induction of cell cycle arrest in human DOHH-2 cells assessed as accumulation of cells at G2/M phase at 1 uM incubated for 24 hrs by PI staining based flow cytometry analysis (reference value: 21.42 %); format: functional
[10] = test system: SU-DHL-6; test: Induction of cell cycle arrest in human SU-DHL-6 cells assessed as accumulation of cells at G2/M phase at 0.5 uM incubated for 24 hrs by PI staining based FACScan flow cytometry analysis (reference value: 20.21 %); format: functional
[11] = test system: SU-DHL-6; test: Induction of apoptosis in human SU-DHL-6 cells assessed as early apoptotic cells at 1.5 uM incubated for 48 hrs by annexin V-FITC and PI staining based flow cytometry analysis (reference value: 8.81 %); format: functional
[12] = test system: DOHH-2; test: Induction of cell cycle arrest in human DOHH-2 cells assessed as accumulation of cells at G0/G1 phase at 1 uM incubated for 24 hrs by PI staining based flow cytometry analysis (reference value: 23.47 %); format: functional
[13] = test system: DOHH-2; test: Induction of apoptosis in human DOHH-2 cells assessed as necrotic cells at 1 uM incubated for 48 hrs by annexin V-FITC and PI staining based flow cytometry analysis (Rvb =0.29 %); format: functional
[14] = test system: DOHH-2; test: Induction of apoptosis in human DOHH-2 cells assessed as viable cells at 1 uM incubated for 48 hrs by annexin V-FITC and PI staining based flow cytometry analysis (reference value: 95.4 %); format: functional; conditions: read-out: Activity
[15] = test system: DOHH-2; test: Induction of apoptosis in human DOHH-2 cells assessed as early apoptotic cells at 1 uM incubated for 48 hrs by annexin V-FITC and PI staining based flow cytometry analysis (reference value: 2.09 %); format: functional
[16] = test system: SU-DHL-6; test: Induction of apoptosis in human SU-DHL-6 cells assessed as necrotic cells at 1.5 uM incubated for 48 hrs by annexin V-FITC and PI staining based flow cytometry analysis (reference value: 0.32%); format: functional
[17] = test system: SU-DHL-6; test: Induction of apoptosis in human SU-DHL-6 cells assessed as viable cells at 1.5 uM incubated for 48 hrs by annexin V-FITC and PI staining based flow cytometry analysis (reference value: 87.0 %); format: functional; conditions: read-out: Activity
[18] = test system: DOHH-2; test: Induction of cell cycle arrest in human DOHH-2 cells assessed as accumulation of cells at S phase at 1 uM incubated for 24 hrs by PI staining based flow cytometry analysis (reference value: 55.11 %); format: functional
[19] = test system: SU-DHL-6; test: Induction of cell cycle arrest in human SU-DHL-6 cells assessed as accumulation of cells at G0/G1 phase at 0.5 uM incubated for 24 hrs by PI staining based FACScan flow cytometry analysis (reference value: 55.61 %); format: functional
[20] = test system: DOHH-2; test: Induction of apoptosis in human DOHH-2 cells assessed as late apoptotic cells at 1 uM incubated for 48 hrs by annexin V-FITC and PI staining based flow cytometry analysis (reference value: 2.20 %); format: functional
[21] = test system: SU-DHL-6; test: Induction of cell cycle arrest in human SU-DHL-6 cells assessed as accumulation of cells at S phase at 0.5 uM incubated for 24 hrs by PI staining based FACScan flow cytometry analysis (reference value: 24.18 %); format: functional

SMILES	IC50 [2] [µM]	IC50 [4] [µM]	IC50 [5] [µM]	IC50 [6] [µM]	IC50 [7] [µM]	IC50 [1] [µM]	IC50 [3] [µM]	other results
C[C@H]1CC[C@@H](c2nc3cccc(Cl)c3c(=O)n2-c2cccc(F)c2)N1c1nc(N)nc(N)c1C#N	412	17	258	0.19	2	0.09	0.5	
C=CC(=O)N1CCC[C@@H](n2nc(-c3ccc(Oc4ccccc4)cc3)c3c(N)ncnc32)C1 [IBRUTINIB]								Activity [8]: 4.62%; Activity [9]: 13.92%; Activity [10]: 12.04%; Activity [11]: 9.9%; Activity [12]: 46.69%; Activity [13]: 0.7%; viability at 1 µM [14]: 79.9%; Activity [15]: 8.69%; Activity [16]: 0.15%; viability at 1.5 µM [17]: 86.1%; Activity [18]: 40.49%; Activity [19]: 58.11%; Activity [20]: 10.7%; Activity [21]: 29.85%
COc1cncc(-c2cccc3nc([C@@H]4CC[C@H](C)N4c4nc(N)nc(N)c4C#N)n(-c4cccc(F)c4)c(=O)c23)c1	429	9	22	0.11	0.6	0.43	0.52	

Second part, led by results:

IC50 [2] [µM]	IC50 [4] [µM]	IC50 [5] [µM]	IC50 [6] [µM]	IC50 [7] [µM]	SMILES	IC50 [1] [µM]	IC50 [3] [µM]	other results
445	30	374	0.18	3	C[C@H]1CC[C@@H](c2nc3c(F)cc(F)cc3c(=O)n2-c2cccnc2)N1c1nc(N)nc(N)c1C#N	0.16	0.47	
	312		1.34	41	N#Cc1c(N)nc(N)nc1N1[C@H](c2nc3cccc(Cl)c3c(=O)n2N2CCOCC2)C[C@@H]2CCCC[C@@H]21	1.04	3.86	
1550	364	3120	1.1	42	N#Cc1c(N)nc(N)nc1N1[C@H](c2nc3cccc(F)c3c(=O)n2-c2cccnc2)C[C@@H]2CCCC[C@@H]21	1.12	2.57	
	280		1.61	28	N#Cc1c(N)nc(N)nc1N1[C@H](c2nc3cccc(Cl)c3c(=O)n2-c2cccc(F)c2)C[C@@H]2CCCC[C@@H]21	1.3	2.8	
